Where no end group is shown, it is not given here.
How the values were obtained:
[1] = system: HSP47 (GAL4-BD-fusion); assay: Yeast two-hybrid interaction with BD-fusion HSP47 (indicator of triple-helical conformation); assay type: cell-based, mouse
Text: We expressed (Pro-Gly-Pro)-repeating peptides with a repeat number of 10, 13, or 23, as GAL4-AD-fusion proteins in yeast cells. The lengths of (Pro-Gly-Pro)10, (Pro-Gly-Pro)13, and (Pro-Gly-Pro)23 correspond to those of the N-terminal host, the guest plus the N-terminal host, and the guest plus the N- and C-hosts in the above peptide design (Fig. 1B), respectively. The peptides with fewer (Pro-Gly-Pro)-repeats have lower thermal stability of the triple helices ([19]). We set three different culture temperatures, 16, 30, and 37 °C, with the expectation of identifying the binding of BD-fusion HSP47 to these three peptides with GAL4-AD by the yeast two-hybrid system (Fig. 3). The mated yeast cells were selected by His and Ade auxotrophy in the presence of aureobasidin and X-α-Gal. When HSP47 interacts with the peptides, GAL4-BD and GAL4-AD are brought into proximity to activate the transcription of reporter genes (AUR1-C, ADE2, HIS3, and MEL1). The reporter gene expression allows yeast cells to survive on the plates and turn blue by degrading X-α-Gal. The interaction between HSP47 (bait) and peptides (prey) was detected by the growth of blue colonies on the selection plates. […] HSP47 bound only to (Pro-Gly-Pro)23 in yeast cells at 37 °C. At 30 °C, HSP47 bound to (Pro-Gly-Pro)13 as well as (Pro-Gly-Pro)23, but not to (Pro-Gly-Pro)10. At 16 °C, HSP47 bound to all three of the peptides.
A gene fragment encoding full-length mature mouse PEDF and HSP47 with EcoRI and SalI sites was obtained by PCR amplification, as described in the literature ([15], [45]). The DNA fragments and a pGBKT7 vector were ligated after digestion with EcoRI and SalI and transformed into E. coli HST08 competent cells (TaKaRa, Shiga, Japan). To prepare plasmids encoding PEDF R148A and D255N mutants, inverse PCR was performed with the above GAL4-BD-fused PEDF in a pGBKT7 vector as a template by Primestar MAX (TaKaRa). The PCR product was ligated with Gibson assembly reagents (New England Biolabs, Hertfordshire, UK), followed by transformation into HST08 competent cells. […]
(§1) Y2H interaction was detected by incubation of the generated diploids on minimal-medium quadruple-dropout (QDO; SD/-Leu-Trp-His-Ade) plates with 40 μg/ml X-α-Gal (FUJIFILM Wako Pure Chemical, Osaka, Japan) and 200 ng/ml aureobasidin A (TaKaRa) (QDOGA) plates and incubated for 3–5 days. Positivity for interaction was recorded upon the generation of yeast colonies that appeared blue.

[2] = system: full-length mouse PEDF (GAL4-BD-fusion); assay: Yeast two-hybrid interaction of AD-fusion peptides with BD-fusion WT-PEDF; assay type: cell-based; conditions: yeast diploids cultured at 25 °C for 5 days
Text: To determine whether the peptides with the obtained sequences bind to PEDF in the same manner as the native PEDF-binding sequence, α1(I)930–938, we examined independent two-hybrid interactions of the three peptides and their mutants in which Arg at Yaa4 was substituted with Ala. […] We also examined the binding of the peptides to collagen-binding-null or heparin-binding-null PEDF mutants that we already reported ([33]). […] Meanwhile, the interaction was not observed for the peptide with the 1-2 sequence, probably because Cys at Xaa9 led to weaker interaction with PEDF than Leu ([15]). […] By contrast, the interactions were maintained using heparin-binding-null PEDF mutant (PEDF R148A) as a bait protein.
The bait and prey plasmids were transformed into S. cerevisiae Y2H gold (MATa, trp1-901, leu2-3, 112, ura3-52, his3-200, gal4Δ, gal80Δ, LYS2::GAL1UAS-Gal1TATA-His3, GAL2UAS-Gal2TATA-Ade2, URA3::MEL1UAS-Mel1TATA, AUR1-C MEL1; TaKaRa) and Y187 strains (MATα, ura3-52, his3-200, ade2-101, trp1-901, leu2-3, 112, gal4Δ, gal80Δ, met-, URA3::GAL1UAS-Gal1TATA-LacZ, MEL1; TaKaRa), in accordance with the manufacturer’s protocol. They were incubated on SD/-Trp and SD/-Leu plates, respectively, at 30 °C for 4–5 days for the selection of transformed clones.
Diploids were prepared by mixing them on yeast peptone dextrose adenine (YPDA) plates. After incubation at 30 °C overnight, they were spread on minimal-medium double-dropout (DDO; SD/-Leu-Trp) plates and incubated at 30 °C for 2–3 days for the selection of diploids.
as §1

(Pro-Gly-Pro)10 [GAL4-AD-fusion (Pro-Gly-Pro)10]
Two-hybrid interaction with HSP47 ([1]; cultured at 30 °C for 3 days): not

(Pro-Gly-Pro)10-Lys-Gly-His-Arg-Gly-Phe-Ser-Gly-Leu-(Pro-Gly-Pro)10 [α1(I)930–938]
Two-hybrid interaction with BD-fusion WT-PEDF (blue colonies on QDOGA plates) [2]: observed

(Pro-Gly-Pro)13 [GAL4-AD-fusion (Pro-Gly-Pro)13]
Two-hybrid interaction with HSP47 ([1]; cultured at 30 °C for 3 days): bound

(Pro-Gly-Pro)23 [GAL4-AD-fusion (Pro-Gly-Pro)23]
Two-hybrid interaction with HSP47 ([1]; cultured at 30 °C for 3 days): bound
Two-hybrid interaction with HSP47 ([1]; cultured at 37 °C for 3 days): bound

KGCRGLHGL [1-1, GAL4-AD-fusion peptide clone from the random library, flanked by (Pro-Gly-Pro)10 hosts]
Two-hybrid interaction with BD-fusion WT-PEDF (blue colonies on QDOGA plates) [2]: observed

RGHRGFLGL [1-3, GAL4-AD-fusion peptide clone from the random library]
Two-hybrid interaction with BD-fusion WT-PEDF (blue colonies on QDOGA plates) [2]: observed

RGVRGFEGC [1-2, GAL4-AD-fusion peptide clone from the random library]
Two-hybrid interaction with BD-fusion WT-PEDF (blue colonies on QDOGA plates) [2]: not observed
